From ChEMBL document CHEMBL1201862, “PubChem BioAssay data set” (2004)
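Compound exposure: 48 hours, 5 concentrations, 96-well plates. GI50: concentration for 50% inhibition of growth.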 Activity calls are given as the source filed them. No stated cut-off is given here; in the data, active = GI50 up to about 1.1 µM and inactive = higher.

Tests used:
Assay in all cases: DTP human tumour cell line panel, 48 h
[1] = tested on: DLD-1
[2] = tested on: DMS-114
[3] = tested on: DMS-273
[4] = tested on: M19-MEL
[5] = tested on: SNB-78
[6] = tested on: XF498
[7] = tested on: HOP-18
[8] = tested on: KM-20L2
[9] = tested on: RXF 631

Measured: GI50

Cc1csc(=S)n1OC(=O)NC1CCCCC1
inactive: [1] 55.5 µM | [2] 12.3 µM | [3] > 49.4 µM | [4] 16.5 µM | [5] 97.7 µM | [6] > 100 µM

COC1(OC)CC2C(=O)N(Cc3ccccc3)C1CC2S(=O)(=O)c1ccccc1 (stereo not drawn)
inactive: [1] > 100 µM | [2] > 100 µM | [3] > 100 µM | [7] > 100 µM | [4] > 100 µM | [6] 33.4 µM

CCOC(=O)NN(C(=O)OCC)C(C(=O)c1ccc(Cl)cc1)=C1NCCN1
inactive: [1] > 100 µM | [2] > 100 µM | [3] > 100 µM | [7] > 100 µM | [8] > 100 µM | [4] > 100 µM | [5] > 100 µM | [6] 78.9 µM

C/N=c1\ss/c(=N\C(=S)N(C)C)n1C
inactive: [1] > 100 µM | [2] > 100 µM | [3] > 100 µM | [7] > 100 µM | [8] > 100 µM | [4] > 100 µM | [5] > 100 µM | [6] > 100 µM

O=[As](O)(O)c1cc(/N=N/c2ccc(-c3ccc(/N=N/c4cc([As](=O)(O)O)c(O)cc4O)cc3)cc2)c(O)cc1O
inactive: [1] > 43 µM | [2] > 80.4 µM | [3] > 100 µM | [7] > 100 µM | [8] > 100 µM | [4] > 100 µM | [9] > 100 µM | [5] > 100 µM

CCCCCCCCCC(=O)CC(=O)c1ccc(O)cc1O
inactive: [1] 28.5 µM | [3] 28.2 µM | [7] 20.1 µM | [8] 38 µM

Cc1ccc(NC(=S)SCCC(=O)O)cc1
inactive: [2] > 100 µM | [3] > 100 µM | [8] > 100 µM | [9] > 100 µM | [5] > 100 µM

CCOc1ccc(NC2=NC(=O)C(CC(=O)Nc3ccccc3[N+](=O)[O-])S2)cc1 (stereo not drawn)
inactive: [1] > 100 µM | [2] > 100 µM | [3] > 100 µM | [8] > 100 µM | [4] > 100 µM | [5] > 100 µM | [6] > 100 µM

CCNC1C2(CCCCC2)NC(=O)C12CCCCC2 (stereo not drawn)
inactive: [1] > 100 µM | [2] > 100 µM | [3] > 100 µM | [8] > 100 µM | [4] > 100 µM | [5] > 100 µM | [6] > 100 µM

CCC12C=CCN3CCC4(C(=C(C(=O)OC)C1)Nc1ccccc14)[C@H]32 (stereo partly drawn)
inactive: [1] 40.4 µM | [2] 19.2 µM | [3] 17.9 µM | [7] 26.5 µM | [8] 19.8 µM | [4] 31.3 µM

O=C(NCCNCCO)N/N=C/c1ccccc1
inactive: [1] > 100 µM | [2] > 100 µM | [3] > 100 µM | [7] > 100 µM | [5] > 100 µM | [6] > 100 µM

CCOC(=O)C(Cc1c[nH]c2cc([N+](=O)[O-])ccc12)NS(=O)(=O)c1ccc2ccccc2c1 (stereo not drawn)
inactive: [1] 23.7 µM | [2] 19.7 µM | [3] 17.5 µM | [7] 29.5 µM | [8] 19 µM | [4] 17.2 µM | [5] 20.7 µM | [6] 17.3 µM

CO[C@@]12CC(=O)/C(=C(O)\C=C\c3ccccc3)C(=O)[C@]1(OC)Cc1ccccc1O2
inactive: [1] 32.2 µM | [2] 44.8 µM | [7] 35.6 µM | [8] 22.4 µM | [4] 37.5 µM | [9] 30.3 µM | [5] 30.5 µM | [6] 43 µM

Nc1nc(N)c(-c2ccccc2)c(CCC(=O)Nc2ccc(Cl)cc2)n1
inactive: [1] > 100 µM | [3] > 100 µM | [7] > 100 µM | [8] > 100 µM | [4] > 100 µM | [5] > 100 µM

COC1=CCC=C(C[C@@H]2NCCc3cc(OC)c(OC)cc32)C1
inactive: [1] > 100 µM | [3] > 100 µM | [8] > 100 µM | [4] > 100 µM | [5] > 100 µM | [6] > 100 µM

Cn1cc(NC(=O)c2cc(NC(=O)CCCCCCCCC(=O)Nc3cc(C(=O)Nc4cc(C(=O)NCCC(N)N)n(C)c4)n(C)c3)cn2C)cc1C(=O)NCCC(=N)N
inactive: [1] 25.5 µM | [3] 17.1 µM | [7] 25.9 µM | [8] 19.7 µM | [4] 16.6 µM | [9] 26.9 µM | [5] 34.6 µM | [6] 28.6 µM

Cc1cccc(NC(=O)C(=O)C(C(=O)c2ccc3ccccc3c2)C2OC(=O)c3ccccc32)c1C (stereo not drawn)
inactive: [1] 14.8 µM | [2] 7.67 µM | [3] 13.8 µM | [8] 33 µM | [4] 9.91 µM | [9] 7.19 µM | [5] 16.1 µM | [6] 1.56 µM

CCOC(=O)NC(=O)c1cn(C2OC(COC(=O)CCCCCCCCC(=O)OCC3OC(n4cc(C(=O)NC(=O)OCC)c(=O)[nH]c4=O)C4OC(C)(C)OC34)C3OC(C)(C)OC32)c(=O)[nH]c1=O (stereo not drawn)
inactive: [1] > 100 µM | [2] 93.1 µM | [3] 60.1 µM | [7] > 100 µM | [8] 67.6 µM | [4] 26.9 µM | [9] > 100 µM | [5] > 100 µM | [6] 67.1 µM

O=C(O)C1C2CCC(O2)C1C(=O)N1CCCCC1 (stereo not drawn)
inactive: [1] 15.6 µM | [2] 2 µM | [3] 10.6 µM | [7] 12.9 µM | [8] 2.65 µM | [4] 9.1 µM | [9] 17.4 µM | [5] 16.7 µM

OCc1ccc(C2CC(c3ccco3)=NN2c2ccccc2)o1 (stereo not drawn)
inactive: [2] > 100 µM | [3] > 100 µM | [8] > 100 µM | [4] > 100 µM | [5] > 100 µM | [6] > 100 µM

COc1cc2ccc3c4cc(OC)c(OC(C)C)cc4cnc3c2cc1OC
inactive: [1] > 100 µM | [2] > 100 µM | [7] > 100 µM | [8] > 100 µM | [4] > 100 µM | [9] > 100 µM | [5] > 100 µM

CCOC(=O)NC(=O)c1cn(CCOC(=O)CCCCCCCCC(=O)OCCn2cc(C(=O)NC(=O)OCC)c(=O)[nH]c2=O)c(=O)[nH]c1=O
inactive: [1] > 100 µM | [2] > 100 µM | [3] > 100 µM | [7] > 100 µM | [8] > 100 µM | [4] > 100 µM | [9] > 100 µM | [5] > 100 µM | [6] > 100 µM

COc1cc(C(C#N)NNC(=O)c2ccccc2O)ccc1O (stereo not drawn)
inactive: [1] 4.22 µM | [7] 4.91 µM | [8] 29.4 µM | [4] 3.58 µM | [5] 3.2 µM

Cc1cccc(Cl)c1NC(=O)c1cccc([N+](=O)[O-])c1O
inactive: [1] 31.7 µM | [2] 25.8 µM | [3] 37.2 µM | [7] 28.5 µM | [8] 41.4 µM | [9] 36.7 µM | [5] 71 µM | [6] 32.2 µM

N#CC(C#N)=C(N)/C(C#N)=C/c1ccc2[nH]ccc2c1
inactive: [2] > 100 µM | [3] > 100 µM | [7] 71.4 µM | [8] > 100 µM | [4] > 100 µM | [5] > 100 µM
